Data published in patent publication US10159640B2, “Prebiotic oral care compositions containing amino acids” (COLGATE-PALMOLIVE COMPANY, priority 2013, dated 2018).
Residues, ends and D or L forms follow the SMILES beside them.

Columns and labels:
Type in all cases: cell-based
[1] = test system: beneficial oral bacteria and pathogenic oral bacteria; test: Metabolic activity, whole panel: prebiotic effect; details: for prebiotic effects (metabolic activity): threshold value of 2
Method: Substrates that were able to increase the metabolic activity of at least one of the above beneficial bacteria while not or only minimally increasing the growth of the pathogenic bacteria are considered to be prebiotic substrates. The extent of metabolic activity of the tested bacteria in the presence of the above-mentioned dipeptides after 24 hours and 48 hours was investigated through a high throughput phenotype microarray system (PM) for microbial cells (Biolog Inc.). Each PM can contain up to 95 different biochemical compounds (e.g. di-peptides) that may act as substrates for bacteria as well as one negative control, not containing the substrates. Microarray plates were used in which the different wells of each plate were pre-loaded (by the manufacturer, Biolog Inc.) with different di-peptides to be tested. Each bacterial species was tested using a separate microarray plate. Thus, a single bacterial species was tested with a variety of dipeptides on each particular plate. The microarrays are based on redox technology, using cell respiration as a universal reporter. Active cell respiration results in the reduction of a tetrazolium dye and in the formation of a strong color—for example, when using the tetrazolium dye “Biolog Redox Dye Mix D”, the color changes from transparent/colourless to purple when the dye is reduced. The observation of this color change indicates which of the substrates improve the metabolic activity and health of the cells. Each bacterial species was collected from blood agar plates (incubated for 48 hours anaerobically at 37° C.) and transferred to an IF-0 Base inoculation fluid (Biolog Inc.), which is a nutritionally poor medium. The resulting cell suspension was adjusted to a transmittance of 42% (relative to the transmittance of the base inoculation fluid with no bacterial species present) at 492 nm using a BioRad SmartSpec 3000 Photometer (the adjustment being effected by adding either further inoculation fluid or further bacteria until the transmittance of 42% was achieved). A 1:5 dilution of this suspension was prepared by mixing 3 mL of the 42% transmittance cell suspension with 15 mL of an inoculation fluid (which inoculation fluid was formed by mixing 11.6 mL sterile water, 62.5 mL IF-0 base inoculation fluid and 0.9 mL of the tetrazolium dye “Biolog Redox Dye mix D”), resulting in a final cell density which was equal to 85% transmittance using a BioRad SmartSpec 3000 Photometer. 680 μL of a 2M sodium succinate/200 μM ferric citrate solution in distilled water was added to 68 mL of the 85% transmittance cell suspension and 100 μL of this mixture was added to each well (the various di-peptides being already present in powder form in the relevant wells of the plate as obtained from the supplier i.e. Biolog Inc.). All plates were incubated in an anaerobic atmosphere at 37° C. Color changes were measured spectrophotometrically at 492 nm (Thermo Scientific Multiskan Ascent) at 24 hrs and 48 hrs using the same plate at both time points. […] After 24 hrs and 48 hrs under continuous shaking in a Multiscan microplate reader, the optical density (OD) of the synthetic medium at 24 hours and 48 hours was measured (using the microplate reader) at a wavelength of 492 nm for each combination of bacterium/dipeptide, and for each of their respective controls (i.e. which contained the particular bacterium but no dipeptide). […] The experiment was carried out three times for each combination of bacterium with dipeptide, with each repeat being carried out on a different day (thus providing three biological replicas). The controls were also carried out three times, as above. The values shown are the average (mean) of the three single values obtained (as detailed above) for each combination of bacterium with dipeptide, at 24 hrs and at 48 hrs. […] This value was selected in order to exclude low-stimulating metabolites and avoid false positive results.

[2] = test system: Streptococcus sobrinus; test: Metabolic activity, Biolog phenotype microarray; details: control without dipeptide = 1
Method: (§1) The extent of metabolic activity of the tested bacteria in the presence of the above-mentioned dipeptides after 24 hours and 48 hours was investigated through a high throughput phenotype microarray system (PM) for microbial cells (Biolog Inc.). Each PM can contain up to 95 different biochemical compounds (e.g. di-peptides) that may act as substrates for bacteria as well as one negative control, not containing the substrates. Microarray plates were used in which the different wells of each plate were pre-loaded (by the manufacturer, Biolog Inc.) with different di-peptides to be tested. Each bacterial species was tested using a separate microarray plate. Thus, a single bacterial species was tested with a variety of dipeptides on each particular plate. The microarrays are based on redox technology, using cell respiration as a universal reporter. Active cell respiration results in the reduction of a tetrazolium dye and in the formation of a strong color—for example, when using the tetrazolium dye “Biolog Redox Dye Mix D”, the color changes from transparent/colourless to purple when the dye is reduced. The observation of this color change indicates which of the substrates improve the metabolic activity and health of the cells. Each bacterial species was collected from blood agar plates (incubated for 48 hours anaerobically at 37° C.) and transferred to an IF-0 Base inoculation fluid (Biolog Inc.), which is a nutritionally poor medium. The resulting cell suspension was adjusted to a transmittance of 42% (relative to the transmittance of the base inoculation fluid with no bacterial species present) at 492 nm using a BioRad SmartSpec 3000 Photometer (the adjustment being effected by adding either further inoculation fluid or further bacteria until the transmittance of 42% was achieved). A 1:5 dilution of this suspension was prepared by mixing 3 mL of the 42% transmittance cell suspension with 15 mL of an inoculation fluid (which inoculation fluid was formed by mixing 11.6 mL sterile water, 62.5 mL IF-0 base inoculation fluid and 0.9 mL of the tetrazolium dye “Biolog Redox Dye mix D”), resulting in a final cell density which was equal to 85% transmittance using a BioRad SmartSpec 3000 Photometer. 680 μL of a 2M sodium succinate/200 μM ferric citrate solution in distilled water was added to 68 mL of the 85% transmittance cell suspension and 100 μL of this mixture was added to each well (the various di-peptides being already present in powder form in the relevant wells of the plate as obtained from the supplier i.e. Biolog Inc.). All plates were incubated in an anaerobic atmosphere at 37° C. Color changes were measured spectrophotometrically at 492 nm (Thermo Scientific Multiskan Ascent) at 24 hrs and 48 hrs using the same plate at both time points. […] After 24 hrs and 48 hrs under continuous shaking in a Multiscan microplate reader, the optical density (OD) of the synthetic medium at 24 hours and 48 hours was measured (using the microplate reader) at a wavelength of 492 nm for each combination of bacterium/dipeptide, and for each of their respective controls (i.e. which contained the particular bacterium but no dipeptide). […] The experiment was carried out three times for each combination of bacterium with dipeptide, with each repeat being carried out on a different day (thus providing three biological replicas). The controls were also carried out three times, as above. The values shown are the average (mean) of the three single values obtained (as detailed above) for each combination of bacterium with dipeptide, at 24 hrs and at 48 hrs.

[3] = test system: Veillonella parvula; test: Metabolic activity, Biolog phenotype microarray; details: control without dipeptide = 1
Method: as §1

[4] = test system: Streptococcus gordonii; test: Metabolic activity, Biolog phenotype microarray; details: control without dipeptide = 1
Method: as §1

[5] = test system: Fusobacterium nucleatum; test: Metabolic activity, Biolog phenotype microarray; details: control without dipeptide = 1
Method: as §1

[6] = test system: Tannerella forsythia; test: Metabolic activity, Biolog phenotype microarray; details: control without dipeptide = 1
Method: as §1

[7] = test system: Actinomyces viscosus; test: Metabolic activity, Biolog phenotype microarray; details: control without dipeptide = 1
Method: as §1

[8] = test system: Porphyromonas gingivalis; test: Metabolic activity, Biolog phenotype microarray; details: control without dipeptide = 1
Method: as §1

[9] = test system: Streptococcus mutans; test: Metabolic activity, Biolog phenotype microarray; details: control without dipeptide = 1
Method: as §1

[10] = test system: Capnocytophaga sputigena; test: Metabolic activity, Biolog phenotype microarray; details: control without dipeptide = 1
Method: as §1

[11] = test system: Prevotella intermedia; test: Metabolic activity, Biolog phenotype microarray; details: control without dipeptide = 1
Method: as §1

[12] = test system: Actinomyces naeslundii; test: Metabolic activity, Biolog phenotype microarray; details: control without dipeptide = 1
Method: as §1

[13] = test system: Streptococcus salivarius; test: Metabolic activity, Biolog phenotype microarray; details: control without dipeptide = 1
Method: as §1

[14] = test system: Aggregatibacter actinomycetemcomitans; test: Metabolic activity, Biolog phenotype microarray; details: control without dipeptide = 1
Method: as §1

[15] = test system: Streptococcus sanguinis; test: Metabolic activity, Biolog phenotype microarray; details: control without dipeptide = 1
Method: as §1

[16] = test system: Streptococcus mitis; test: Metabolic activity, Biolog phenotype microarray; details: control without dipeptide = 1
Method: as §1

| SMILES | metabolic activity: OD 492 nm divided by OD of control ([2]; 24 hrs) | metabolic activity: OD 492 nm divided by OD of control ([2]; 48 hrs) | metabolic activity: OD 492 nm divided by OD of control ([3]; 24 hrs) | metabolic activity: OD 492 nm divided by OD of control ([3]; 48 hrs) | metabolic activity: OD 492 nm divided by OD of control ([4]; 24 hrs) | metabolic activity: OD 492 nm divided by OD of control ([4]; 48 hrs) | metabolic activity: OD 492 nm divided by OD of control ([5]; 24 hrs) | metabolic activity: OD 492 nm divided by OD of control ([5]; 48 hrs) | metabolic activity: OD 492 nm divided by OD of control ([6]; 24 hrs) | metabolic activity: OD 492 nm divided by OD of control ([6]; 48 hrs) | metabolic activity: OD 492 nm divided by OD of control ([7]; 24 hrs) | metabolic activity: OD 492 nm divided by OD of control ([7]; 48 hrs) | metabolic activity: OD 492 nm divided by OD of control ([8]; 24 hrs) | metabolic activity: OD 492 nm divided by OD of control ([8]; 48 hrs) | metabolic activity: OD 492 nm divided by OD of control ([9]; 24 hrs) | metabolic activity: OD 492 nm divided by OD of control ([9]; 48 hrs) | metabolic activity: OD 492 nm divided by OD of control ([10]; 24 hrs) | metabolic activity: OD 492 nm divided by OD of control ([10]; 48 hrs) | metabolic activity: OD 492 nm divided by OD of control ([11]; 24 hrs) | metabolic activity: OD 492 nm divided by OD of control ([11]; 48 hrs) | other results |
| --- | --- | --- | --- | --- | --- | --- | --- | --- | --- | --- | --- | --- | --- | --- | --- | --- | --- | --- | --- | --- | --- |
| NC(Cc1c[nH]cn1)C(=O)NC(Cc1c[nH]c2ccccc12)C(=O)O (stereo not drawn) [His-Trp] | 1.0811 | 1.2074 | 1.1364 | 1.4269 | 1.0431 | 1.1070 | 0.9185 | 0.9774 | 0.8973 | 0.9897 | 1.8735 | 2.2797 | 1.0126 | 1.3518 | 1.0292 | 1.5031 | 1.3266 | 1.3068 | 1.0278 | 1.2057 | prebiotic effects (metabolic activity) ([1]; 48 hrs): exhibited prebiotic effects; metabolic activity: OD 492 nm divided by OD of control ([12]; 24 hrs): 1.3153; metabolic activity: OD 492 nm divided by OD of control ([12]; 48 hrs): 1.5439; metabolic activity: OD 492 nm divided by OD of control ([13]; 24 hrs): 0.9767; metabolic activity: OD 492 nm divided by OD of control ([13]; 48 hrs): 1.0689; metabolic activity: OD 492 nm divided by OD of control ([14]; 24 hrs): 0.9439; metabolic activity: OD 492 nm divided by OD of control ([14]; 48 hrs): 0.9818; metabolic activity: OD 492 nm divided by OD of control ([15]; 24 hrs): 1.0228; metabolic activity: OD 492 nm divided by OD of control ([15]; 48 hrs): 1.0830; metabolic activity: OD 492 nm divided by OD of control ([16]; 24 hrs): 0.9734; metabolic activity: OD 492 nm divided by OD of control ([16]; 48 hrs): 1.0242 |
| CC(C)C(NC(=O)C(N)CO)C(=O)O (stereo not drawn) [Ser-Val] (H-Ser-Val-OH; configuration not given here) | 1.3133 | 1.8354 | 1.2776 | 1.3095 | 1.4328 | 1.7640 | 1.3741 | 1.5983 | 1.2842 | 1.7260 | 2.1120 | 2.4349 | 1.3880 | 1.9267 | 1.4622 | 2.0721 | 1.4541 | 1.4933 | 1.4709 | 1.7953 | prebiotic effects (metabolic activity) ([1]; 24 hrs): exhibited prebiotic effects; speed of metabolism by beneficial versus pathogenic bacteria ([1]; value of 2 reached at 24 hrs for beneficial but not pathogenic bacteria): metabolized faster by the beneficial bacteria than by the pathogenic bacteria; metabolic activity: OD 492 nm divided by OD of control ([12]; 24 hrs): 1.4073; metabolic activity: OD 492 nm divided by OD of control ([12]; 48 hrs): 1.7338; metabolic activity: OD 492 nm divided by OD of control ([13]; 24 hrs): 1.3826; metabolic activity: OD 492 nm divided by OD of control ([13]; 48 hrs): 1.9626; metabolic activity: OD 492 nm divided by OD of control ([14]; 24 hrs): 1.4527; metabolic activity: OD 492 nm divided by OD of control ([14]; 48 hrs): 1.9697; metabolic activity: OD 492 nm divided by OD of control ([15]; 24 hrs): 1.2030; metabolic activity: OD 492 nm divided by OD of control ([15]; 48 hrs): 1.5280; metabolic activity: OD 492 nm divided by OD of control ([16]; 24 hrs): 1.4166; metabolic activity: OD 492 nm divided by OD of control ([16]; 48 hrs): 1.8051 |
